Experimental data taken from patent publication US12410208B2, “(2-acetamidyl)thio-beta-D-galactopyranoside derivatives” (Idorsia Pharmaceuticals Ltd, priority 2020, dated 2025).
Where two headings read alike, the source gives them in different places.

Tests used:
[1] = biological target: biotinylated human Gal-3 (hGal-3) (Homo sapiens, UniProt P17931); assay: Competitive binding assay: biotinylated hGal-3 binding to microplate-adsorbed asialofetuin (ASF), spectrophotometric
Summary of the method: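 Competitive binding of biotinylated hGal-3 to plate-adsorbed asialofetuin was measured with serially diluted compounds over 3 h at 4° C. Bound protein was detected with streptavidin-peroxidase and ABTS substrate by absorbance. IC50 values are means of several measurements.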

human Gal-1 (hGal-1) = human Gal-1 (hGal-1) (Homo sapiens, UniProt P09382); assay: Competitive binding assay: biotinylated hGal-1 binding to microplate-adsorbed asialofetuin (ASF), spectrophotometric; conditions: hGal-1 binding to asialofetuin; Table 15; R and S epimers of selected Examples also listed; read-out: IC50 (Galectin-1 inhibition)
human Gal-1 (hGal-1), sequence (P09382 whole entry): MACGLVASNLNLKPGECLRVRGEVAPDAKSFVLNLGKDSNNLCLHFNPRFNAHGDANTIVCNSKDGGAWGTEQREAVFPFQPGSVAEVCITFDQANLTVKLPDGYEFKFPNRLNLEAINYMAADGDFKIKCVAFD
Summary of the method: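 Biotinylated hGal-1 (300-1000 ng/mL) incubated with compound on asialofetuin-coated plates 3 hours at 4 °C, washed, then streptavidin-peroxidase (80 ng/mL) 1 hour at 4 °C. ABTS substrate read spectrophotometrically; IC50 reported as mean of several measurements.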

[2] = Gal-3 inhibition, Table 5, read-out: IC50
[3] = Gal-3 inhibition, Table 4, read-out: IC50
[4] = Gal-3 inhibition, Table 7, read-out: IC50

biotinylated human Gal-3 (hGal-3), sequence (P17931 whole entry): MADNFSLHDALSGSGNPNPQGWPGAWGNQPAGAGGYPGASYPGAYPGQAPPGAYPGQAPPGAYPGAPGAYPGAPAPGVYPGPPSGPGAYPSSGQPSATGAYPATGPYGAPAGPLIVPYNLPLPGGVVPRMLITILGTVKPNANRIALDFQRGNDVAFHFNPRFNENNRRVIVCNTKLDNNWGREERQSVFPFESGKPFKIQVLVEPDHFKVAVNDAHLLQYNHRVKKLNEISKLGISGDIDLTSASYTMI

IC50 (human Gal-1 (hGal-1)) [nM] | SMILES | further results
36000 | CCN(C)C(=O)[C@@H](S[C@@H]1O[C@H](CO)[C@H](O)[C@H](n2cc(-c3cc(F)c(F)c(F)c3)nn2)[C@H]1O)C1CCOCC1 [Example 2.56.203S., (S)-2-(((2S,3R,4S,5R,6R)-3,5-dihydroxy-6-(hydroxymethyl)-4-(4-(3,4,5-trifluorophenyl)-1H-1,2,3-triazol-1-yl)tetrahydro-2H-pyran-2-yl)thio)-N-ethyl-N-methyl-2-(tetrahydro-2H-pyran-4-yl)acetamide, reference compound] | IC50 ([1]; Gal-3 inhibition, Table 1 (Reference Examples), read-out: IC50): 6860 nM
110 | O=C(C(S[C@@H]1O[C@H](CO)[C@H](O)[C@H](n2cc(-c3cc(F)c(F)c(F)c3)nn2)[C@H]1O)C1(O)CCC(F)(F)CC1)N1CCC(F)(F)CC1 (stereo partly drawn) [Example 2.44.226., 2-(4,4-Difluoro-1-hydroxycyclohexyl)-1-(4,4-difluoropiperidin-1-yl)-2-(((2S,3R,4S,5R,6R)-3,5-dihydroxy-6-(hydroxymethyl)-4-(4-(3,4,5-trifluorophenyl)-1H-1,2,3-triazol-1-yl)tetrahydro-2H-pyran-2-yl)thio)ethan-1-one] | IC50 [1, 2]: 90 nM
5730 | CO[C@@H]1[C@@H](n2cc(-c3cc(F)c(F)c(F)c3)nn2)[C@@H](O)[C@@H](CO)O[C@H]1S[C@@H](C(=O)N1CCC(F)(F)CC1)C1(O)CCC(F)(F)CC1 [Example 2.44.226R.I., (R)-2-(4,4-difluoro-1-hydroxycyclohexyl)-1-(4,4-difluoropiperidin-1-yl)-2-(((2S,3R,4S,5R,6R)-5-hydroxy-6-(hydroxymethyl)-3-methoxy-4-(4-(3,4,5-trifluorophenyl)-1H-1,2,3-triazol-1-yl)tetrahydro-2H-pyran-2-yl)thio)ethan-1-one] | IC50 ([1]; Table 12, hGal-3, read-out: IC50 (Gal-3 inhibition)): 890 nM
310 | O=C(C(S[C@@H]1O[C@H](CO)[C@H](O)[C@H](n2cc(-c3cc(F)c(F)c(F)c3)nn2)[C@H]1O)C1(O)CCOCC1)N1CCc2ccccc21 (stereo partly drawn) [Example 2.41.209., 2-(((2S,3R,4S,5R,6R)-3,5-Dihydroxy-6-(hydroxymethyl)-4-(4-(3,4,5-trifluorophenyl)-1H-1,2,3-triazol-1-yl)tetrahydro-2H-pyran-2-yl)thio)-2-(4-hydroxytetrahydro-2H-pyran-4-yl)-1-(indolin-1-yl)ethan-1-one] | IC50 [1, 3]: 150 nM
340 | CN(CC1CC1)C(=O)C(S[C@@H]1O[C@H](CO)[C@H](O)[C@H](n2cc(-c3cc(F)c(F)c(F)c3)nn2)[C@H]1O)C(O)Cc1ccccc1 (stereo partly drawn) [Example 2.64.218., N-(Cyclopropylmethyl)-2-(((2S,3R,4S,5R,6R)-3,5-dihydroxy-6-(hydroxymethyl)-4-(4-(3,4,5-trifluorophenyl)-1H-1,2,3-triazol-1-yl)tetrahydro-2H-pyran-2-yl)thio)-3-hydroxy-N-methyl-4-phenylbutanamide] | IC50 [1, 4]: 110 nM
50 | CN(CC1CC1)C(=O)[C@@H](S[C@@H]1O[C@H](CO)[C@H](O)[C@H](n2cc(-c3cc(F)c(F)c(F)c3)nn2)[C@H]1O)C1(O)CCOCC1 [Example 2.41.218S., (S)-N-(Cyclopropylmethyl)-2-(((2S,3R,4S,5R,6R)-3,5-dihydroxy-6-(hydroxymethyl)-4-(4-(3,4,5-trifluorophenyl)-1H-1,2,3-triazol-1-yl)tetrahydro-2H-pyran-2-yl)thio)-2-(4-hydroxytetrahydro-2H-pyran-4-yl)-N-methylacetamide] | IC50 [1, 3]: 20 nM
19000 | CN(CC1CC1)C(=O)[C@H](S[C@@H]1O[C@H](CO)[C@H](O)[C@H](n2cc(-c3cc(F)c(F)c(F)c3)nn2)[C@H]1O)C1(O)CCOCC1 [Example 2.41.218R., (R)-N-(Cyclopropylmethyl)-2-(((2S,3R,4S,5R,6R)-3,5-dihydroxy-6-(hydroxymethyl)-4-(4-(3,4,5-trifluorophenyl)-1H-1,2,3-triazol-1-yl)tetrahydro-2H-pyran-2-yl)thio)-2-(4-hydroxytetrahydro-2H-pyran-4-yl)-N-methylacetamide] | IC50 [1, 3]: 2250 nM
190 | CN(CC1CC1)C(=O)C(S[C@@H]1O[C@H](CO)[C@H](O)[C@H](n2cc(-c3cc(F)c(F)c(F)c3)nn2)[C@H]1O)C1(O)CCOCC1 (stereo partly drawn) [Example 2.41.218., N-(Cyclopropylmethyl)-2-(((2S,3R,4S,5R,6R)-3,5-dihydroxy-6-(hydroxymethyl)-4-(4-(3,4,5-trifluorophenyl)-1H-1,2,3-triazol-1-yl)tetrahydro-2H-pyran-2-yl)thio)-2-(4-hydroxytetrahydro-2H-pyran-4-yl)-N-methylacetamide] | IC50 [1, 3]: 800 nM
7290 | Cn1ccc(C(O)C(S[C@@H]2O[C@H](CO)[C@H](O)[C@H](n3cc(-c4cc(F)c(F)c(F)c4)nn3)[C@H]2O)C(=O)N2CCC2)n1 (stereo partly drawn) [Example 2.65.206., 1-(Azetidin-1-yl)-2-(((2S,3R,4S,5R,6R)-3,5-dihydroxy-6-(hydroxymethyl)-4-(4-(3,4,5-trifluorophenyl)-1H-1,2,3-triazol-1-yl)tetrahydro-2H-pyran-2-yl)thio)-3-hydroxy-3-(1-methyl-1H-pyrazol-3-yl)propan-1-one] | IC50 [1, 4]: 1040 nM
180 | CCN(C(=O)C(S[C@@H]1O[C@H](CO)[C@H](O)[C@H](n2cc(-c3cc(F)c(F)c(F)c3)nn2)[C@H]1OC)C1(O)CCC(F)(F)CC1)C1CCOCC1 (stereo partly drawn) [Example 2.44.257.I.] | IC50 ([1]; Table 10, hGal-3, read-out: IC50 (Gal-3 inhibition)): 70 nM
880 | CCN(C)C(=O)C(S[C@@H]1O[C@H](CO)[C@H](O)[C@H](n2cc(-c3cc(F)c(F)c(F)c3)nn2)[C@H]1O)C(C)(C)O (stereo partly drawn) [Example 2.31.203., 2-(((2S,3R,4S,5R,6R)-3,5-Dihydroxy-6-(hydroxymethyl)-4-(4-(3,4,5-trifluorophenyl)-1H-1,2,3-triazol-1-yl)tetrahydro-2H-pyran-2-yl)thio)-N-ethyl-3-hydroxy-N,3-dimethylbutanamide] | IC50 ([1]; Gal-3 inhibition, Table 3, read-out: IC50): 210 nM
22600 | CN(CC(C)(C)C)C(=O)[C@H](S[C@@H]1O[C@H](CO)[C@H](O)[C@H](n2cc(-c3cc(F)c(F)c(F)c3)nn2)[C@H]1O)C1(O)CCC1 [Example 2.34.228R., (R)-2-(((2S,3R,4S,5R,6R)-3,5-Dihydroxy-6-(hydroxymethyl)-4-(4-(3,4,5-trifluorophenyl)-1H-1,2,3-triazol-1-yl)tetrahydro-2H-pyran-2-yl)thio)-2-(1-hydroxycyclobutyl)-N-methyl-N-neopentylacetamide] | IC50 [1, 2]: 5900 nM
1020 | CCC(O)C(S[C@@H]1O[C@H](CO)[C@H](O)[C@H](n2cc(-c3cc(F)c(F)c(F)c3)nn2)[C@H]1O)C(=O)N(C)CC (stereo partly drawn) [Example 2.60.203., 2-(((2S,3R,4S,5R,6R)-3,5-Dihydroxy-6-(hydroxymethyl)-4-(4-(3,4,5-trifluorophenyl)-1H-1,2,3-triazol-1-yl)tetrahydro-2H-pyran-2-yl)thio)-N-ethyl-3-hydroxy-N-methylpentanamide] | IC50 [1, 4]: 170 nM
46000 | CN(CC(C)(C)F)C(=O)[C@H](S[C@@H]1O[C@H](CO)[C@H](O)[C@H](n2cc(-c3cc(F)c(F)c(F)c3)nn2)[C@H]1O)C1(O)CCC1 [Example 2.34.222R., (R)-2-(((2S,3R,4S,5R,6R)-3,5-Dihydroxy-6-(hydroxymethyl)-4-(4-(3,4,5-trifluorophenyl)-1H-1,2,3-triazol-1-yl)tetrahydro-2H-pyran-2-yl)thio)-N-(2-fluoro-2-methylpropyl)-2-(1-hydroxycyclobutyl)-N-methylacetamide] | IC50 [1, 2]: 8610 nM
60 | CCN(C)C(=O)[C@@H](S[C@@H]1O[C@H](CO)[C@H](O)[C@H](n2cc(-c3cc(F)c(F)c(F)c3)nn2)[C@H]1O)C1(O)CCN(C(=O)NC2CC2)CC1 [Example 2.49.203S., (S)-N-Cyclopropyl-4-(1-(((2S,3R,4S,5R,6R)-3,5-dihydroxy-6-(hydroxymethyl)-4-(4-(3,4,5-trifluorophenyl)-1H-1,2,3-triazol-1-yl)tetrahydro-2H-pyran-2-yl)thio)-2-(ethyl(methyl)amino)-2-oxoethyl)-4-hydroxypiperidine-1-carboxamide] | IC50 ([1]; Table 8, hGal-3, read-out: IC50 (Gal-3 inhibition)): 40 nM
640 | CCN(C)C(=O)C(S[C@@H]1O[C@H](CO)[C@H](O)[C@H](n2cc(-c3cc(F)c(F)c(F)c3)nn2)[C@H]1O)C1(O)CCC1 (stereo partly drawn) [Example 2.34.203., 2-(((2S,3R,4S,5R,6R)-3,5-Dihydroxy-6-(hydroxymethyl)-4-(4-(3,4,5-trifluorophenyl)-1H-1,2,3-triazol-1-yl)tetrahydro-2H-pyran-2-yl)thio)-N-ethyl-2-(1-hydroxycyclobutyl)-N-methylacetamide] | IC50 [1, 2]: 400 nM
350 | CCN(C)C(=O)C(S[C@@H]1O[C@H](CO)[C@H](O)[C@H](n2cc(-c3cc(F)c(Br)c(F)c3)nn2)[C@H]1O)C1(O)CCOCC1 (stereo partly drawn) [Example 18.41.203., 2-(((2S,3R,4S,5R,6R)-4-(4-(4-Bromo-3,5-difluorophenyl)-1H-1,2,3-triazol-1-yl)-3,5-dihydroxy-6-(hydroxymethyl)tetrahydro-2H-pyran-2-yl)thio)-N-ethyl-2-(4-hydroxytetrahydro-2H-pyran-4-yl)-N-methylacetamide] | IC50 ([1]; Table 11, hGal-3, read-out: IC50 (Gal-3 inhibition)): 40 nM
30 | CO[C@@H]1[C@@H](n2cc(-c3cc(F)c(F)c(F)c3)nn2)[C@@H](O)[C@@H](CO)O[C@H]1S[C@H](C(=O)N(C)c1ccccn1)C1(O)CCC(F)(F)CC1 [Example 2.41.233S.I.] | IC50 ([1]; Table 9, hGal-3, read-out: IC50 (Gal-3 inhibition)): 50 nM
